# Experimental data from patent publication US7396846B2, “Growth hormone secretagogues” (Eli Lilly and Company, priority 2002, dated 2008).
# Counter-ions that a name gives are not always drawn.
# Test system: pituitary cells
# Assay: Pituitary Cell Culture Assay for Growth Hormone (GH) Secretion
# Format: cell-based
# Conditions: 0.75 h; stimulation of GH secretion, cultured rat anterior pituitary cells, 45 min at room temperature, rat GH radioimmunoassay
# Source text: Growth hormone secretagogue activity can be determined using a typical assay which may employ pituitary cells established in culture, followed by a challenge with the various compounds of formula I, and the levels of growth hormone determined accordingly. Growth hormone levels may be calculated using various radioimmunoassay techniques known to those of skill in the art. One example of such an assay is detailed herein.
# Pituitary Cell Culture Assay for Growth Hormone (GH) Secretion
# Fifteen 250 g male Sprague-Dawley rats are used for each assay. The animals are killed by decapitation and anterior pituitaries are removed and placed into ice cold culture medium. The pituitaries are sectioned in small pieces and enzymatically digested using trypsin (Difco) to weaken connective tissue. Pituitary cells are dispersed by mechanical agitation, collected, pooled and then seeded into 96-well plates (50,000 cells/well). After 5 days of culture, the cells formed as monolayer (70-80% confluent). Cells are then washed with medium (without phenol red) and incubated for 90 min at 37° C. Afterwards the cells are challenged to secrete GH by the addition of GH secretagogues to the medium. After 45 min at room temperature, the medium is removed, filtered and stored frozen until radioimmunoassays for rat GH were performed. Doses of secretagogue are added in triplicates. Compounds disclosed herein are active in the assay as described. The compounds cause a stimulation of GH secretion resulting in at least 20% increase of the basal level of GH with and EC50<500 nM. […] Both EC50 and efficacy values were calculated by the 4-parameter logistic equation. Such values were pooled and represented as mean+/−standard error, when appropriate.
row,SMILES,EC50 [nM]
1,"CCN(CC1=C(c2ccc(S(C)(=O)=O)cc2)S(=O)(=O)NC12CCCCC2)C(=O)[C@@H](COCc1cc(F)ccc1F)NC(=O)C(C)(C)N [Example 2, 2-(R)-2-(2-Amino-2-methylpropionylamino)-3-(2,5-difluorophenyl)methoxypropionic acid N-ethyl-N-(3-(4-methanesulfonyl-phenyl)-2,2-dioxo-2-thia-1-azaspiro[4.5]dec-3-ene-4-ylmethyl)amide Hydrochloride]",0.23
2,"CCN(CC1=C(c2ccc(S(C)(=O)=O)cc2)S(=O)(=O)NC12CCCCC2)C(=O)[C@@H](COCc1ccc(F)c(F)c1)NC(=O)C(C)(C)N [Example 4, 2-(R)-2-(2-Amino-2-methylpropionylamino)-3-(3,4-difluorophenyl)methoxypropionic acid N-ethyl-N-(3-(4-methanesulfonyl-phenyl)-2,2-dioxo-2-thia-1-azaspiro[4.5]dec-3-ene-4-ylmethyl)amide Hydrochloride]",0.9
3,"CCN(CC1=C(c2ccc(S(C)(=O)=O)cc2)S(=O)(=O)NC12CCCCC2)C(=O)[C@@H](COCc1cc(F)cc(F)c1)NC(=O)C(C)(C)N [Example 5, 2-(R)-2-(2-Amino-2-methylpropionylamino)-3-(3,5-difluorophenyl)methoxypropionic acid N-ethyl-N-(3-(4-methanesulfonyl-phenyl)-2,2-dioxo-2-thia-1-azaspiro[4.5]dec-3-ene-4-ylmethyl)amide Hydrochloride]",0.6
4,"CN(CC1=C(c2ccc(Cl)cc2)S(=O)(=O)NC1(C)C)C(=O)[C@@H](COCc1ccc(F)cc1)NC(=O)C(C)(C)N [Example 7, 2-(R)-2-(2-Amino-2-methylpropionylamino)-3-(4-fluorophenyl)methoxy propionic acid N-[5-(4-chlorophenyl)-3,3-dimethyl-1,1-dioxo-2,3-dihydroisothiazol-4-ylmethyl]-N-methylamide Hydrochloride]",1.7

# Same assay, conditions: stimulation of GH secretion, cultured rat anterior pituitary cells, 45 min at room temperature, rat GH radioimmunoassay
row,SMILES,EC50 [nM]
1,"CCN(CC1=C(c2ccc(Cl)cc2)S(=O)(=O)NC1(C)C)C(=O)[C@@H](COCc1ccc(F)cc1F)NC(=O)C(C)(C)N [Example 12, 2-(R)-2-(2-Amino-2-methylpropionylamino)-3-(2,4-difluorophenyl)methoxy propionic acid N-[5-(4-chlorophenyl)-3,3-dimethyl-1,1-dioxo-2,3-dihydroisothiazol-4-ylmethyl]-N-ethylamide Hydrochloride]",8
2,"CCN(CC1=C(c2ccc(Cl)cc2)S(=O)(=O)NC1(C)C)C(=O)[C@@H](COCc1cc(F)ccc1F)NC(=O)C(C)(C)N [Example 15, 2-(R)-2-(2-Amino-2-methylpropionylamino)-3-(2,5-difluorophenyl)methoxy propionic acid N-[5-(4-chlorophenyl)-3,3-dimethyl-1,1-dioxo-2,3-dihydroisothiazol-4-ylmethyl]-N-ethylamide Hydrochloride]",2.1
3,"CCN(CC1=C(c2ccc(Cl)cc2)S(=O)(=O)NC1(C)C)C(=O)[C@@H](COCc1c(F)cccc1F)NC(=O)C(C)(C)N [Example 16, 2-(R)-2-(2-Amino-2-methylpropionylamino)-3-(2,6-difluorophenyl)methoxy propionic acid N-[5-(4-chlorophenyl)-3,3-dimethyl-1,1-dioxo-2,3-dihydroisothiazol-4-ylmethyl]-N-ethylamide Hydrochloride]",1.1
